Measurements from patent KR20060104555A, “사이클로펜타디온 유도체를 포함하는 항암 조성물” (한국생명공학연구원, priority 2005, dated 2006).
≈ marks a conversion by molar mass, not a printed value.

Tests used:
Solubility = type: physicochemical
[1] = biological target: T1, farnesyl transferase (파네실 전달효소) (Rattus norvegicus, UniProt Q02293+Q04631); assay: Farnesyl transferase inhibition, SPA with 3H-FPP and biotin-lamin B peptide; type: biochemical, rat (Sprague Dawley); settings: 50% inhibitory concentration; room temperature, 30 min
T1 construct: Q 세파로즈 고속 칼럼(Q Sepharose Fast Flow column)을 이용하여 부분 정제한 것을 사용하였다; from tissue; host or cells: rat (Sprague Dawley, male) brain homogenate, partially purified on Q Sepharose Fast Flow

[2] = test system: colorectal cancer cells SW620 (대장암세포 SW620); assay: WST-1 growth inhibition, SW620; type: cell-based; settings: Homo sapiens, SW-620, SW620, 48 h
[3] = test system: colorectal cancer cells HCA-7 (대장암세포 HCA-7); assay: WST-1 growth inhibition, HCA-7; type: cell-based; settings: Homo sapiens, HCA-7, 48 h
HEK293 (신장암세포 HEK293) = assay: WST-1 growth inhibition, HEK293; type: cell-based; settings: Homo sapiens, HEK293, 48 h
[4] = test system: colorectal cancer cells HCT116 (대장암세포 HCT116); assay: WST-1 growth inhibition, HCT116; type: cell-based; settings: Homo sapiens, HCT-116, HCT116, 48 h
[5] = test system: breast cancer cells MDA-MB-231 (유방암세포 MDA-MB-231); assay: WST-1 growth inhibition, MDA-MB-231; type: cell-based; settings: Homo sapiens, MDA-MB-231, 48 h
[6] = test system: lung cancer cells A549 (폐암세포 A549); assay: WST-1 growth inhibition, A549; type: cell-based; settings: Homo sapiens, A549, 48 h
[7] = test system: lung cancer cells NCI-H23 (폐암세포 NCI-H23); assay: WST-1 growth inhibition, NCI-H23; type: cell-based; settings: Homo sapiens, NCI-H23, 48 h
[8] = test system: prostate cancer cells DU145 (전립선암세포 DU145); assay: WST-1 growth inhibition, DU145; type: cell-based; settings: Homo sapiens, DU-145, DU145, 48 h

COC1=C(OC)C(=O)C(=C(O)/C=C/c2ccccc2)C1=O [Linderone, linderone]
solubility (Solubility; Alcohols, DMSO): 가용성 | solubility (Solubility; Hexane, H2O): 불용성 | IC50 [1]: 33.3 µM

COC1=CC(=O)C(=C(O)/C=C/c2ccccc2)C1=O [Lucidone, lucidone]
solubility (Solubility; Alcohols, DMSO): 가용성 | solubility (Solubility; Hexane, H2O): 불용성 | IC50 [1]: 125 µM

COC(/C=C/c1ccccc1)=C1C(=O)C(OC)=C(OC)C1=O [Methyllinderone, methyllinderone]
GI50 [2]: 3.5 µg/mL (≈ 11.7 µM) | solubility (Solubility; Alcohols, DMSO): 가용성 | solubility (Solubility; Hexane, H2O): 불용성 | GI50 [3]: 0.52 µg/mL (≈ 1.73 µM) | GI50 (HEK293 (신장암세포 HEK293)): 3 µg/mL (≈ 9.99 µM) | GI50 [4]: 0.45 µg/mL (≈ 1.5 µM) | GI50 [5]: 3.8 µg/mL (≈ 12.7 µM) | GI50 [6]: 3.2 µg/mL (≈ 10.7 µM) | GI50 [7]: 1.1 µg/mL (≈ 3.66 µM) | IC50 [1]: 43.3 µM

COC1=CC(=O)C(=C(/C=C/c2ccccc2)OC)C1=O [Methyllucidone, methyllucidone]
GI50 [2]: 2 µg/mL (≈ 7.4 µM) | solubility (Solubility; Alcohols, DMSO): 가용성 | solubility (Solubility; Hexane, H2O): 불용성 | GI50 [3]: 0.39 µg/mL (≈ 1.44 µM) | GI50 (HEK293 (신장암세포 HEK293)): 4.8 µg/mL (≈ 17.8 µM) | GI50 [4]: 0.26 µg/mL (≈ 0.962 µM) | GI50 [5]: 3.5 µg/mL (≈ 12.9 µM) | GI50 [6]: 15 µg/mL (≈ 55.5 µM) | GI50 [8]: 1.8 µg/mL (≈ 6.66 µM) | GI50 [7]: 1 µg/mL (≈ 3.7 µM) | IC50 [1]: 40.7 µM
